The values that follow come from publication PMC7201284, “A complete compendium of crystal structures for the human SEPT3 subgroup reveals functional plasticity at a specific septin interface” (IUCrJ, 2020).

Holding throughout (assay): X-ray crystallography, co-crystallization
For one test, the target named is T1, SEPT12G (Homo sapiens, UniProt Q8IYM1).
T1 construct: gene SEPTIN12; G domain, residues 47-320, pET-28a(+) His-tag, E. coli Rosetta (DE3); monomer about 32 kDa
T1 sequence (Q8IYM1 47-320): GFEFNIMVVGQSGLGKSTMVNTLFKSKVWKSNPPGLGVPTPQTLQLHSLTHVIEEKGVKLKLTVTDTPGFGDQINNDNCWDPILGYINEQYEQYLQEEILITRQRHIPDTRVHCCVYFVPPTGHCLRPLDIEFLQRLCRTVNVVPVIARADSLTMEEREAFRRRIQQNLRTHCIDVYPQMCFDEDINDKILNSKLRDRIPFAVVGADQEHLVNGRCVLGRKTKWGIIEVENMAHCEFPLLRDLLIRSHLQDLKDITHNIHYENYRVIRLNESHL
Conditions: Mg2+, nucleotide-binding site.

Another test addresses T2, SEPT9GC (Homo sapiens, UniProt Q9UHD8).
T2 construct: gene SEPTIN9; G domain plus C-terminal region, residues 279-568, pET-28a(+) His-tag, E. coli Rosetta (DE3); monomer about 38 kDa; purified nucleotide-free
T2 sequence (Q9UHD8 279-568): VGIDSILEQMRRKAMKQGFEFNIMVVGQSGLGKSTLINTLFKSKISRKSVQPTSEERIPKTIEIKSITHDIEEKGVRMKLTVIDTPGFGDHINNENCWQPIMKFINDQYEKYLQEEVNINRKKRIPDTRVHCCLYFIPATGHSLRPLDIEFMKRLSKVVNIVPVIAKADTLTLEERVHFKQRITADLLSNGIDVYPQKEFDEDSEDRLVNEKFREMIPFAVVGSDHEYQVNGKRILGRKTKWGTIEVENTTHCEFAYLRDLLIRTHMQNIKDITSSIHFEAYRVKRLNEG
Particulars: about 2.0 Å; Mg2+; nucleotide-binding site at G interface.

For the next test, the target named is T3, SEPT3α0G (Homo sapiens, UniProt Q9UH03).
T3 construct: gene SEPTIN3; G domain plus polybasic helix α0, residues 43-330; expressed and purified as in Macedo et al. 2013; monomer in solution; homotypic G-interface dimers in crystal
Particulars: 1.83 Å; Mg2+ in active site; nucleotide-binding site at G interface.

The target in another test is T4, SEPT3G (Homo sapiens, UniProt Q9UH03).
T4 construct: gene SEPTIN3; G domain without helix α0, residues 59-330; expressed and purified as in Macedo et al. 2013; monomer in solution; homotypic G-interface dimers in crystal
Particulars: 1.86 Å; Mg2+; nucleotide-binding site; b26 labels 4z51 as GTPγS but methods, Table 2 and results say GMPPNP.

T3 sequence (Q9UH03 43-330): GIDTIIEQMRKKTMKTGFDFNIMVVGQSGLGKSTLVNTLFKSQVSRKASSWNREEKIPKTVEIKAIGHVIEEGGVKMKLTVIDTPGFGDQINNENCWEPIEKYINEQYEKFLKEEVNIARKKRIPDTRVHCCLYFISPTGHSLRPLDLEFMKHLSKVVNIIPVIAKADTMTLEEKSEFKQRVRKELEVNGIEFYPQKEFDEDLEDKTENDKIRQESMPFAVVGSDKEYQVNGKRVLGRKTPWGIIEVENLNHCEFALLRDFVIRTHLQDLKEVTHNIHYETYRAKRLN
T4 sequence (Q9UH03 59-330): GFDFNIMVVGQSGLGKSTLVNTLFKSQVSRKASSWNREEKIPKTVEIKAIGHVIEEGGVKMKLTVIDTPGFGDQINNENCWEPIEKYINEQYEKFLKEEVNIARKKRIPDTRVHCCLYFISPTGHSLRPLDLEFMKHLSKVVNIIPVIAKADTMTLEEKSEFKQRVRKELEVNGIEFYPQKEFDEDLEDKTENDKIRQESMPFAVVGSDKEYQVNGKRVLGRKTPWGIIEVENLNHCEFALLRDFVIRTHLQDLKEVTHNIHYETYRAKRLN

Turning to `Nc1nc2c(ncn2[C@@H]2O[C@H](COP(=O)(O)OP(=O)(O)O)[C@@H](O)[C@H]2O)c(=O)[nH]1` [GDP], the “X-ray crystallography, co-crystallization” value at SEPT12G (2.19 Å, small quantity of GDP also co-purified) is on record as “In SEPT12G–GDP (PDB entry 6mqk) the metal ion is canonically coordinated by Thr89, Ser63”; at SEPT9GC, “The structure of SEPT9GC–GDP (PDB entry 5cyo) has a G-interface dimer in the asymmetric unit”; on SEPT3α0G it was “structures of the G domain of SEPT3 complexed with either GDP or the GTP mimetic GMPPNP”.
Turning to `Nc1nc2c(ncn2[C@@H]2O[C@H](COP(=O)(O)OP(=O)(O)NP(=O)(O)O)[C@@H](O)[C@H]2O)c(=O)[nH]1` [GMPPNP], the “X-ray crystallography, co-crystallization” value on SEPT12G (1.86 Å (P1, 6mq9) and 2.12 Å (C2221, 6mqb)) is reported as “Two structures were obtained in the presence of GMPPNP”; on SEPT3G, “The SEPT3G–GMPPNP complex (PDB entry 4z51) has only one monomer per asymmetric unit”.
